# According to US10407410B2, “Pyridin-3-yl acetic acid derivatives as inhibitors of human immunodeficiency virus replication” (priority 2016, dated 2019):
# System: NL-RLuc virus (HIV)
# Assay: Inhibition of HIV replication (NL-RLuc luciferase reporter virus in MT-2 cells)
# Format: cell-based
# Conditions: Human immunodeficiency virus 1, MT2, 120 h
# Excerpt: Inhibition of HIV Replication
# A recombinant NL-RLuc proviral clone was constructed in which a section of the nef gene from NL4-3 was replaced with the Renilla Luciferase gene. This virus is fully infectious and can undergo multiple cycles of replication in cell culture. In addition, the luciferous reporter provides a simple and easy method for quantitating the extent of virus growth and consequently, the antiviral activity of test compounds. The plasmid pNLRLuc contains the proviral NL-Rluc DNA cloned into pUC18 at the PvuII site. The NL-RLuc virus was prepared by transfection of 293T cells with the plasmid pNLRLuc. Transfections were performed using the LipofectAMINE PLUS kit from Invitrogen (Carlsbad, Calif.) according to the manufacturer and the virus generated was titered in MT-2 cells. For susceptibility analyses, the titrated virus was used to infect MT-2 cells in the presence of compound, and after 5 days of incubation, cells were processed and quantitated for virus growth by the amount of expressed luciferase. Assay media was RPMI 1640 supplemented with 10% heat inactivated fetal bovine serum (FBS), 100 units/ml penicillin G/100 units/ml streptomycin, 10 mM HEPES buffer pH 7.55 and 2 mM L-glutamine. The results from at least 2 experiments were used to calculate the EC50 values. Luciferase was quantitated using the Dual Luciferase kit from Promega (Madison, Wis.). Susceptibility of viruses to compounds was determined by incubation in the presence of serial dilutions of the compound. The 50% effective concentration (EC50) was calculated by using the exponential form of the median effect equation where (Fa)=1/[1+(ED50/drug conc.)^m] (Johnson V A, Byington R T. Infectivity Assay. In Techniques in HIV Research. ed. Aldovini A, Walker B D. 71-76. New York: Stockton Press. 1990).
row,Structure (SMILES),EC50 [nM]
1,"Cc1nc(C)c([C@H](OC(C)(C)C)C(=O)O)c(N2CCC(C)(C)CC2)c1-c1ccc2c(c1)CN(Cc1ccc(F)cc1)C2 [Example 21, (S)-2-(tert-butoxy)-2-(4-(4,4-dimethylpiperidin-1-yl)-5-(2-(4-fluorobenzyl)isoindolin-5-yl)-2,6-dimethylpyridin-3-yl)acetic acid]",30
2,"Cc1nc(C)c([C@H](OC(C)(C)C)C(=O)O)c(N2CCC(C)(C)CC2)c1-c1ccc2c(c1)CCC(Cc1ccc(F)cc1)C2 (stereo partly drawn) [Example 26, (2S)-2-(tert-Butoxy)-2-(4-(4,4-dimethylpiperidin-1-yl)-5-(6-(4-fluorobenzyl)-5,6,7,8-tetrahydronaphthalen-2-yl)-2,6-dimethylpyridin-3-yl)acetic acid]",10
3,"Cc1nc(CO)c(-c2ccc3c(c2)CC[C@@H](Cc2ccc(F)cc2)O3)c(N2CCC(C)(C)CC2)c1[C@H](OC(C)(C)C)C(=O)O [Example 36, (S)-2-(tert-Butoxy)-2-(4-(4,4-dimethylpiperidin-1-yl)-5-((S)-2-(4-fluorobenzyl)chroman-6-yl)-6-(hydroxymethyl)-2-methylpyridin-3-yl)acetic acid]",2
4,"Cc1nc(C)c([C@H](OC(C)(C)C)C(=O)O)c(N2CCC(C)(C)CC2)c1-c1ccc2[nH]c(=O)[nH]c2c1 [Example 8, (S)-2-(tert-butoxy)-2-(4-(4,4-dimethylpiperidin-1-yl)-2,6-dimethyl-5-(2-oxo-2,3-dihydro-1H-benzo[d]imidazol-5-yl)pyridin-3-yl)acetic acid]",7060
5,"Cc1nc(C)c([C@H](OC(C)(C)C)C(=O)O)c(N2CCC(C)(C)CC2)c1-c1ccc2c(c1)CCC(COc1cccc(F)c1F)O2 (stereo partly drawn) [Example 41, (2S)-2-tert-Butoxy-2-(5-(2-((2,3-difluorophenoxy)methyl)chroman-6-yl)-4-(4,4-dimethylpiperidin-1-yl)-2,6-dimethylpyridin-3-yl)acetic acid]",3
6,"Cc1nc(C)c([C@H](OC(C)(C)C)C(=O)O)c(N2CCC(C)(C)CC2)c1-c1ccc2c(c1)CCC(COc1ccccc1F)O2 (stereo partly drawn) [Example 40, (2S)-2-tert-Butoxy-2-(4-(4,4-dimethylpiperidin-1-yl)-5-(2-((2-fluorophenoxy)methyl)chroman-6-yl)-2,6-dimethylpyridin-3-yl)acetic acid]",4
7,"Cc1nc(C)c([C@H](OC(C)(C)C)C(=O)O)c(N2CCC(C)(C)CC2)c1-c1ccc2c(c1)CCC(c1ccc(F)cc1)O2 (stereo partly drawn) [Example 42, (2S)-2-tert-Butoxy-2-(4-(4,4-dimethylpiperidin-1-yl)-5-(2-(4-fluorophenyl)chroman-6-yl)-2,6-dimethylpyridin-3-yl)acetic acid]",7
8,"Cc1nc(C)c([C@H](OC(C)(C)C)C(=O)O)c(N2CCC(C)(C)CC2)c1-c1ccc2c(c1)CCN(Cc1cscn1)C2=O [Example 17, (S)-2-(tert-butoxy)-2-(4-(4,4-dimethylpiperidin-1-yl)-2,6-dimethyl-5-(1-oxo-2-(thiazol-4-ylmethyl)-1,2,3,4-tetrahydroisoquinolin-6-yl)pyridin-3-yl)acetic acid]",24
9,"Cc1nc(C)c([C@H](OC(C)(C)C)C(=O)O)c(N2CCC(C)(C)CC2)c1-c1ccc2c(c1)CC[C@@H](Cc1ccc(F)cc1)O2 [Example 34, (S)-2-tert-Butoxy-2-(4-(4,4-dimethylpiperidin-1-yl)-5-((S)-2-(4-fluorobenzyl)chroman-6-yl)-2,6-dimethylpyridin-3-yl)acetic acid]",2
10,"Cc1nc(C)c([C@H](OC(C)(C)C)C(=O)O)c(N2CCC(C)(C)CC2)c1-c1ccc2ccncc2c1 [Example 1, (S)-2-(tert-Butoxy)-2-(4-(4,4-dimethylpiperidin-1-yl)-5-(isoquinolin-7-yl)-2,6-dimethylpyridin-3-yl)acetic acid]",47
11,"Cc1nc(CO)c(-c2ccc3c(c2)CCC(c2ccc(F)cc2)O3)c(N2CCC(C)(C)CC2)c1[C@H](OC(C)(C)C)C(=O)O (stereo partly drawn) [Example 43, (2S)-2-tert-Butoxy-2-(4-(4,4-dimethylpiperidin-1-yl)-5-(2-(4-fluorophenyl)chroman-6-yl)-6-(hydroxymethyl)-2-methylpyridin-3-yl)acetic acid]",7
12,"Cc1nc(C)c([C@H](OC(C)(C)C)C(=O)O)c(N2CCC(C)(C)CC2)c1-c1ccc2c(c1)CCC(Oc1ccc(F)cc1)C2 (stereo partly drawn) [Example 27, (2S)-2-(tert-Butoxy)-2-(4-(4,4-dimethylpiperidin-1-yl)-5-(6-(4-fluorophenoxy)-5,6,7,8-tetrahydronaphthalen-2-yl)-2,6-dimethylpyridin-3-yl)acetic acid]",6
13,"Cc1nc(C)c([C@H](OC(C)(C)C)C(=O)O)c(N2CCC(C)(C)CC2)c1-c1ccc2c(c1)c(OCc1ccc(F)cc1)cc(=O)n2C [Example 20, (S)-2-(tert-butoxy)-2-(4-(4,4-dimethylpiperidin-1-yl)-5-(4-((4-fluorobenzyl)oxy)-1-methyl-2-oxo-1,2-dihydroquinolin-6-yl)-2,6-dimethylpyridin-3-yl)acetic acid]",87
14,"Cc1nc(C)c([C@H](OC(C)(C)C)C(=O)O)c(N2CCC(C)(C)CC2)c1-c1ccc2c(c1)CCN(Cc1nccs1)C2=O [Example 15, (S)-2-(tert-butoxy)-2-(4-(4,4-dimethylpiperidin-1-yl)-2,6-dimethyl-5-(1-oxo-2-(thiazol-2-ylmethyl)-1,2,3,4-tetrahydroisoquinolin-6-yl)pyridin-3-yl)acetic acid]",14
15,"Cc1nc(C)c([C@H](OC(C)(C)C)C(=O)O)c(N2CCC(C)(C)CC2)c1-c1coc2ccccc12 [Example 7, (2S)-2-(5-(benzofuran-3-yl)-4-(4,4-dimethylpiperidin-1-yl)-2,6-dimethylpyridin-3-yl)-2-(tert-butoxy)acetic acid]",288
16,"Cc1nc(C)c([C@H](OC(C)(C)C)C(=O)O)c(N2CCC(C)(C)CC2)c1-c1ccc2c(c1)CC[C@@](C)(Cc1ccc(F)cc1)O2 [Example 39, (S)-2-tert-Butoxy-2-(4-(4,4-dimethylpiperidin-1-yl)-5-((S)-2-(4-fluorobenzyl)-2-methylchroman-6-yl)-2,6-dimethylpyridin-3-yl)acetic acid]",3
17,"Cc1ncsc1CN1CCc2cc(-c3c(C)nc(C)c([C@H](OC(C)(C)C)C(=O)O)c3N3CCC(C)(C)CC3)ccc2C1=O [Example 16, (S)-2-(tert-butoxy)-2-(4-(4,4-dimethylpiperidin-1-yl)-2,6-dimethyl-5-(2-((4-methylthiazol-5-yl)methyl)-1-oxo-1,2,3,4-tetrahydroisoquinolin-6-yl)pyridin-3-yl)acetic acid]",6
18,"Cc1nc(C)c([C@H](OC(C)(C)C)C(=O)O)c(N2CCC(C)(C)CC2)c1-c1ccc2c(c1)CC[C@@H](Cc1ccc(F)c(F)c1)O2 [Example 28, (S)-2-tert-Butoxy-2-(5-((S)-2-(3,4-difluorobenzyl)chroman-6-yl)-4-(4,4-dimethylpiperidin-1-yl)-2,6-dimethylpyridin-3-yl)acetic acid]",2
19,"Cc1nc(C)c([C@H](OC(C)(C)C)C(=O)O)c(N2CCC(C)(C)CC2)c1-c1ccc2c(c1)CN(Cc1ccc(F)cc1)C2=O [Example 13, (S)-2-(tert-butoxy)-2-(4-(4,4-dimethylpiperidin-1-yl)-5-(2-(4-fluorobenzyl)-1-oxoisoindolin-5-yl)-2,6-dimethylpyridin-3-yl)acetic acid]",12
